From patent publication US20160263258A1, “Radiotracer introduced [18F]fluoromethyl group targeting neuroinflammation for PET imaging and Synthesis of Radiotracer and its biological evaluation Method for Radiotracer” (Bio Imaging Korea Co., Ltd., priority 2013, published 2016)

Tests used:
TSPO = target: T1, TSPO (Rattus norvegicus, UniProt P16257); assay: Selective/specific PET imaging: inhibition image by co-injection with the radiotracer; format: in vivo
T1 construct: from tissue; host or cells: brain of living LPS-injected Sprague-Dawley rats (PET imaging)
Description: (§1) To construct a neuroinflammation rat model, male Sprague-Dawley rats with a weight of 200-250 g were used. Each of the rats was anesthetized, and the cranium was exposed and then drilled with a bone drill to form a small hole. Thereafter, 50 μg of LPS (lipopolysaccharide) was injected into the rat body by a Hamilton syringe at a flow rate of […] (AP, 0.8 mm; L, −2.7 mm; and P, −5.0 mm from the bregma). LPS was maintained for 10 minutes to prevent LPS from flowing backward in the Hamilton syringe, and then the small hole of the cranium was filled with wax and the incised scalp was closed.

[1] = system: LPS-induced brain neuroinflammation rat model; assay: PET imaging in LPS-induced brain neuroinflammation rat model; format: in vivo; details: for time of uptake (faster uptake): PET time-activity, after injection; for accumulation in LPS-injected inflammatory region versus contralateral region: PET, tail vein injection, 4 days after LPS
Description: as §1
At 4 days after LPS injection into five rats (227.98±3.8 g), positron emission tomography (PET) images were acquired. The rats were subjected to PET imaging for 120 minutes after injection of [^11C]PBR28 or the [^18F]fluoromethyl group-introduced radiotracer into the tail vein of the neuroinflammation model. First, a [^11C]PBR28 image was acquired from the neuroinflammation model, and after six-half lives ([…]) when the remaining radioactivity disappeared, an image of the [^18F]fluoromethyl group-introduced radiotracer was acquired.

[2] = pH 7.4
Description: For the measurement of lipophilicity, each of the [^18F]fluoromethyl group-introduced radiotracer and [^11C]PBR28 (about 0.74 MBq) in 5% ethanol/saline was added to and mixed with n-octanol (5 mL) and sodium phosphate buffer (5.0 mL, 0.15 M, pH 7.4), and then lipophilicity was measured four times. The radioactivity of the sample (100 μL) in each sample was measured, and the lipophilicity was calculated as the ratio of counts per minute to sodium phosphate buffer and n-octanol.

[3] = Metabolism of radiotracer in brain of neuroinflammation model rats (HPLC); format: in vivo, rat
Description: The [^18F]fluoromethyl group-introduced radiotracer (about 37 MBq, 5% ethanol/saline) was injected into the vein of the neuroinflammation model rats through the tail vein. After 30 and 60 minutes, the rats were sacrificed, and brain samples were collected therefrom, after which the metabolism of the fluorine-18-labeled radiotracer was measured by HPLC. As a result, the amount of the [^18F]fluoromethyl group-introduced radiotracer in the rat brain was 97.3% 30 minutes after injection and 96.8% 60 minutes after injection. Other radioactive metabolites, excluding 2-3% fluorine-18, were not observed in HPLC up to 60 minutes after injection. In contrast, according to previous studies, it is known that, in the case of [^11C]PBR28, radioactive metabolites exist in an amount of about 10-15%, thereby giving false images.

[4] = background art; cited from earlier work
[5] = according to previous studies; cited from earlier work

Q: For CCOC(=O)c1ncn2c1CN(C)C(=O)c1cc(F)ccc1-2 [Flumazenil], which “influence on uptake of the fluorine-18-labeled radiotracer in the inflammatory region” value (TSPO; 5 mg/kg injected simultaneously with the [18F] radiotracer, CBR ligand) is on record?
A: The value was “did not influence the uptake”.

Q: For CC(=O)N(Cc1ccccc1OC[18F])c1cnccc1Oc1ccccc1 [N-(2-[^18F]fluoromethoxybenzyl)-N-(4-phenoxypyridin-3-yl)acetamide], which “time of uptake (faster uptake)” value [1] is on record?
A: The value was 4.5 min.

Q: What about the “accumulation in LPS-injected inflammatory region versus contralateral region” value [1] of the same compound?
A: The value was “more selectively accumulated in the LPS-injected inflammatory region than the contralateral region”.

Q: What about the “uptake, times higher” value ([1]; for about 2 hours, p=0.009) of the same compound?
A: The value was “at least 3.0 times”.

Q: And the lipophilicity [2]?
A: Its lipophilicity is 2.85±0.02.

Q: And the “amount of radiotracer in the rat brain” value ([3]; 30 minutes after injection)?
A: Its value is 97.3%.

Q: What about the “amount of radiotracer in the rat brain” value ([3]; 60 minutes after injection) of the same compound?
A: The value was 96.8%.

Q: What about the “fluorine-18 (radioactive metabolite) in brain” value ([3]; up to 60 minutes after injection) of the same compound?
A: The value was 2-3%.

Q: With CCC(C)N(C)C(=O)c1cc2ccccc2c(-c2ccccc2Cl)n1 (stereo not drawn) [PK11195] as the compound, how does the “inhibition of radiotracer uptake in the inflammatory region” value (TSPO; 10 mg/kg injected simultaneously with the [18F] radiotracer) read?
A: Its value is “about 66%”.

Q: For COc1ccc(OC)c(CN(C(C)=O)c2cc(F)ccc2Oc2ccccc2)c1 [[^11C]DAA1106], which “uptake relative to [11C]-(R)-PK11195” value [4] is on record?
A: The value was “at least 4 times”.

Q: For CC(=O)N(Cc1ccccc1O[11CH3])c1ccc(Oc2ccccc2)nc1 [[^11C]PBR28, N-acetyl-N-(2-[^11C]methoxybenzyl)-2-phenoxy-5-pyridinamine], which “time of uptake (faster uptake)” value [1] is on record?
A: The value was 20 min.

Q: What about the “accumulation in LPS-injected inflammatory region versus contralateral region” value [1] of the same compound?
A: The value was “more selectively accumulated in the LPS-injected inflammatory region than the contralateral region”.

Q: What about the “inflammatory region/contralateral region ratio” value ([1]; at 90 min) of the same compound?
A: The value was 3.4 times.

Q: What about the “radioactive metabolites, amount” value [5] of the same compound?
A: Its value is 10-15%.

Q: What about the lipophilicity [2] of the same compound?
A: The lipophilicity was 3.01±0.01.
